Results published in patent US9266835B2, “Quinoline derivatives useful as CB-1 inverse agonists” (JANSSEN PHARMACEUTICA NV, priority 2014, dated 2016).

Assay: Chronic DIO Mouse, first study (food intake, body weight, insulin tolerance test, glucose tolerance test, plasma insulin, fed blood glucose)
Assay type: in vivo
Settings: DIO mice; for Fed Blood Glucose / Plasma Insulin: mean (Std Err); for Insulin Tolerance Test, Blood Glucose AUC: day 19; for Intraperitoneal Glucose Tolerance Test Blood Glucose AUC: day 23
Method: Male 14-20-week old diet-induced obese mice were ordered from Taconic. Mice were started on a 60% fat diet (D12492, Research Diets, New Brunswick, N.J.) at 6 weeks of age. Mice were single-housed.
Test compounds were formulated in 10% PEG400 and 10% solutol. Test compounds were administered by oral gavage (5 ml kg^−1).
The test compound was formulated in 10% PEG400 and 10% solutol. DIO mice received vehicle, test compound (@ 1, 3 and 10 mg/kg) daily for 26 days. At the end of the experiment, the mice were euthanized and blood and tissues were collected.
Body weight and food weight (food intake) were monitored daily for days 1-5 and twice weekly thereafter. Fed blood glucose was measured weekly.
An insulin tolerance test (0.5 U/kg Humulin, ip) was performed on day 19 after a 4 hour food removal. Blood glucose was measured at 0, 15, 30, 60 and 120 minutes after insulin. […] Blood glucose was measured at 0, 30, 60 and 120 minutes after glucose challenge.
Blood glucose was measured from the tail vein with a Lifescan glucometer. Plasma insulin was measured with an ELISA or HTRF kit (Cisbio). Plasma parameters were measured with an Olympus clinical chemistry analyzer.
Compound #44 was tested according to the procedure as described above, with results as listed in Table BIO-4A through Table BIO4-G, below.

O=c1cc(NC2CCN(S(=O)(=O)C(F)(F)F)CC2)c2cc(C(c3ccc(Cl)cc3)c3ccc(Cl)cc3)ccc2[nH]1 [Compound #44, 6-(bis(4-chlorophenyl)methyl)-4-(1-(trifluoromethylsulfonyl)piperidin-4-ylamino)quinolin-2(1H)-one]
Fed Blood Glucose (1 mg/kg daily oral, Day 0): 162.75 (13.02) mg/dL
Fed Blood Glucose (1 mg/kg daily oral, Day 18): 154.83 (5.98) mg/dL
Plasma Insulin (1 mg/kg daily oral): 2.60 (0.3) ng/mL
Mean Body Weight (Std Err) (1 mg/kg daily, Day 1): 43.32 (0.45) Grams
Mean Body Weight (Std Err) (1 mg/kg daily, Day 2): 43.28 (0.45) Grams
Mean Daily Food Intake (Std Err) (1 mg/kg daily, Day 2): 2.84 (0.17) Grams
Mean Body Weight (Std Err) (1 mg/kg daily, Day 3): 43.28 (0.42) Grams
Mean Daily Food Intake (Std Err) (1 mg/kg daily, Day 3): 3.00 (0.09) Grams
Mean Body Weight (Std Err) (1 mg/kg daily, Day 4): 43.06 (0.44) Grams
Mean Daily Food Intake (Std Err) (1 mg/kg daily, Day 4): 2.76 (0.17) Grams
Mean Body Weight (Std Err) (1 mg/kg daily, Day 5): 43.21 (0.50) Grams
Mean Daily Food Intake (Std Err) (1 mg/kg daily, Day 5): 2.88 (0.12) Grams
Mean Body Weight (Std Err) (1 mg/kg daily, Day 8): 42.62 (0.48) Grams
Mean Daily Food Intake (Std Err) (1 mg/kg daily, Day 8): 2.50 (0.09) Grams
Mean Body Weight (Std Err) (1 mg/kg daily, Day 10): 42.38 (0.51) Grams
Mean Daily Food Intake (Std Err) (1 mg/kg daily, Day 10): 2.37 (0.07) Grams
Mean Body Weight (Std Err) (1 mg/kg daily, Day 11): 42.07 (0.63) Grams
Mean Daily Food Intake (Std Err) (1 mg/kg daily, Day 11): 2.28 (0.15) Grams
Insulin Tolerance Test, Blood Glucose AUC (1 mg/kg daily): 18543.8 mg·min/dL
Insulin Tolerance Test Mean Blood Glucose (Std Err) (1 mg/kg daily, day 19, 0 min after insulin): 194.0 (6.1) mg/dL
Insulin Tolerance Test Mean Blood Glucose (Std Err) (1 mg/kg daily, day 19, 15 min after insulin): 196.1 (18.6) mg/dL
Insulin Tolerance Test Mean Blood Glucose (Std Err) (1 mg/kg daily, day 19, 30 min after insulin): 136.7 (10.4) mg/dL
Insulin Tolerance Test Mean Blood Glucose (Std Err) (1 mg/kg daily, day 19, 60 min after insulin): 145.1 (11.5) mg/dL
Insulin Tolerance Test Mean Blood Glucose (Std Err) (1 mg/kg daily, day 19, 120 min after insulin): 151.4 (7.8) mg/dL
Intraperitoneal Glucose Tolerance Test Blood Glucose AUC (1 mg/kg daily): 29525.6 mg·min/dL
Intraperitoneal Glucose Tolerance Test Mean Blood Glucose (Std Err) (1 mg/kg daily, day 23, 0 min after glucose): 158.1 (6.9) mg/dL
Intraperitoneal Glucose Tolerance Test Mean Blood Glucose (Std Err) (1 mg/kg daily, day 23, 30 min after glucose): 334.6 (14.5) mg/dL
Intraperitoneal Glucose Tolerance Test Mean Blood Glucose (Std Err) (1 mg/kg daily, day 23, 60 min after glucose): 264.8 (19.7) mg/dL
Intraperitoneal Glucose Tolerance Test Mean Blood Glucose (Std Err) (1 mg/kg daily, day 23, 120 min after glucose): 173.4 (13.5) mg/dL
Fed Blood Glucose (3 mg/kg daily oral, Day 0): 167.13 (7.59) mg/dL
Fed Blood Glucose (3 mg/kg daily oral, Day 18): 156.50 (7.39) mg/dL
Plasma Insulin (3 mg/kg daily oral): 2.26 (0.3) ng/mL
Mean Body Weight (Std Err) (3 mg/kg daily, Day 1): 43.19 (0.39) Grams
Mean Body Weight (Std Err) (3 mg/kg daily, Day 2): 42.86 (0.47) Grams
Mean Daily Food Intake (Std Err) (3 mg/kg daily, Day 2): 2.71 (0.13) Grams
Mean Body Weight (Std Err) (3 mg/kg daily, Day 3): 42.71 (0.56) Grams
Mean Daily Food Intake (Std Err) (3 mg/kg daily, Day 3): 2.92 (0.13) Grams
Mean Body Weight (Std Err) (3 mg/kg daily, Day 4): 42.20 (0.65) Grams
Mean Daily Food Intake (Std Err) (3 mg/kg daily, Day 4): 2.44 (0.24) Grams
Mean Body Weight (Std Err) (3 mg/kg daily, Day 5): 41.95 (0.70) Grams
Mean Daily Food Intake (Std Err) (3 mg/kg daily, Day 5): 2.26 (0.20) Grams
Mean Body Weight (Std Err) (3 mg/kg daily, Day 8): 41.06 (0.76) Grams
Mean Daily Food Intake (Std Err) (3 mg/kg daily, Day 8): 2.30 (0.11) Grams
Mean Body Weight (Std Err) (3 mg/kg daily, Day 10): 40.50 (0.74) Grams
Mean Daily Food Intake (Std Err) (3 mg/kg daily, Day 10): 2.14 (0.15) Grams
Mean Body Weight (Std Err) (3 mg/kg daily, Day 11): 40.15 (0.74) Grams
Mean Daily Food Intake (Std Err) (3 mg/kg daily, Day 11): 1.95 (0.11) Grams
Insulin Tolerance Test, Blood Glucose AUC (3 mg/kg daily): 16879.5 mg·min/dL
Insulin Tolerance Test Mean Blood Glucose (Std Err) (3 mg/kg daily, day 19, 0 min after insulin): 189.4 (7.3) mg/dL
Insulin Tolerance Test Mean Blood Glucose (Std Err) (3 mg/kg daily, day 19, 15 min after insulin): 178.8 (12.5) mg/dL
Insulin Tolerance Test Mean Blood Glucose (Std Err) (3 mg/kg daily, day 19, 30 min after insulin): 121.4 (13.7) mg/dL
Insulin Tolerance Test Mean Blood Glucose (Std Err) (3 mg/kg daily, day 19, 60 min after insulin): 119.7 (9.6) mg/dL
Insulin Tolerance Test Mean Blood Glucose (Std Err) (3 mg/kg daily, day 19, 120 min after insulin): 155.3 (9.5) mg/dL
Intraperitoneal Glucose Tolerance Test Blood Glucose AUC (3 mg/kg daily): 29983.1 mg·min/dL
Intraperitoneal Glucose Tolerance Test Mean Blood Glucose (Std Err) (3 mg/kg daily, day 23, 0 min after glucose): 161.8 (5.0) mg/dL
Intraperitoneal Glucose Tolerance Test Mean Blood Glucose (Std Err) (3 mg/kg daily, day 23, 30 min after glucose): 352.0 (22.6) mg/dL
Intraperitoneal Glucose Tolerance Test Mean Blood Glucose (Std Err) (3 mg/kg daily, day 23, 60 min after glucose): 264.6 (25.6) mg/dL
Intraperitoneal Glucose Tolerance Test Mean Blood Glucose (Std Err) (3 mg/kg daily, day 23, 120 min after glucose): 169.6 (9.2) mg/dL
Fed Blood Glucose (10 mg/kg daily oral, Day 0): 161.88 (6.71) mg/dL
Fed Blood Glucose (10 mg/kg daily oral, Day 18): 154.00 (5.53) mg/dL
Plasma Insulin (10 mg/kg daily oral): 2.14 (0.3) ng/mL
Mean Body Weight (Std Err) (10 mg/kg daily, Day 1): 43.26 (0.40) Grams
Mean Body Weight (Std Err) (10 mg/kg daily, Day 2): 42.39 (0.36) Grams
Mean Daily Food Intake (Std Err) (10 mg/kg daily, Day 2): 2.24 (0.10) Grams
Mean Body Weight (Std Err) (10 mg/kg daily, Day 3): 41.61 (0.41) Grams
Mean Daily Food Intake (Std Err) (10 mg/kg daily, Day 3): 2.29 (0.16) Grams
Mean Body Weight (Std Err) (10 mg/kg daily, Day 4): 40.76 (0.37) Grams
Mean Daily Food Intake (Std Err) (10 mg/kg daily, Day 4): 1.70 (0.08) Grams
Mean Body Weight (Std Err) (10 mg/kg daily, Day 5): 40.17 (0.39) Grams
Mean Daily Food Intake (Std Err) (10 mg/kg daily, Day 5): 1.58 (0.11) Grams
Mean Body Weight (Std Err) (10 mg/kg daily, Day 8): 38.16 (0.48) Grams
Mean Daily Food Intake (Std Err) (10 mg/kg daily, Day 8): 1.80 (0.12) Grams
Mean Body Weight (Std Err) (10 mg/kg daily, Day 10): 37.47 (0.56) Grams
Mean Daily Food Intake (Std Err) (10 mg/kg daily, Day 10): 2.02 (0.13) Grams
Mean Body Weight (Std Err) (10 mg/kg daily, Day 11): 36.67 (0.55) Grams
Mean Daily Food Intake (Std Err) (10 mg/kg daily, Day 11): 1.94 (0.11) Grams
Insulin Tolerance Test, Blood Glucose AUC (10 mg/kg daily): 14258.3 mg·min/dL
Insulin Tolerance Test Mean Blood Glucose (Std Err) (10 mg/kg daily, day 19, 0 min after insulin): 163.5 (5.9) mg/dL
Insulin Tolerance Test Mean Blood Glucose (Std Err) (10 mg/kg daily, day 19, 15 min after insulin): 138.4 (20.0) mg/dL
Insulin Tolerance Test Mean Blood Glucose (Std Err) (10 mg/kg daily, day 19, 30 min after insulin): 96.2 (11.0) mg/dL
Insulin Tolerance Test Mean Blood Glucose (Std Err) (10 mg/kg daily, day 19, 60 min after insulin): 99.7 (9.7) mg/dL
Insulin Tolerance Test Mean Blood Glucose (Std Err) (10 mg/kg daily, day 19, 120 min after insulin): 143.5 (8.3) mg/dL
Intraperitoneal Glucose Tolerance Test Blood Glucose AUC (10 mg/kg daily): 25680.0 mg·min/dL
Intraperitoneal Glucose Tolerance Test Mean Blood Glucose (Std Err) (10 mg/kg daily, day 23, 0 min after glucose): 141.6 (6.5) mg/dL
Intraperitoneal Glucose Tolerance Test Mean Blood Glucose (Std Err) (10 mg/kg daily, day 23, 30 min after glucose): 319.1 (26.9) mg/dL
Intraperitoneal Glucose Tolerance Test Mean Blood Glucose (Std Err) (10 mg/kg daily, day 23, 60 min after glucose): 225.1 (20.3) mg/dL
Intraperitoneal Glucose Tolerance Test Mean Blood Glucose (Std Err) (10 mg/kg daily, day 23, 120 min after glucose): 128.4 (5.7) mg/dL
